Source: patent publication EP3501540A1, “MITOCHONDRIAL TRIFUNCTIONAL PROTEIN (MTP) INHIBITORS FOR USE IN THE TREATMENT OF HIGH MITOCHONDRIAL RESPIRATION (OX+) CANCERS” (UNIVERSITE DE BORDEAUX, priority 2017, dated 2019)

What was measured:
[1] = tested on: A549 (OX+) cells; assay: Sulphorodamine B viability assay; type: cell-based, human; settings: A549 (OX+) cells in vitro
Procedure: A549_LUC and H460_LUC, human lung cancer cells, were stably transfected with luciferase (pRRLsin-MND-Luc-WPRE). […] Also, they were tested as luciferase positive using direct application of 2 mL of a 150 mg/ml solution of luciferine (Firefly Luciferin, Caliper Lifescience Corp, USA), followed by immediate bioluminescent imaging using the photonIMAGER™ optima system.
(§1) Briefly, cells were seeded in 96-well plates and medium was changed after 24 h, then Test Reagent was added on top of the cell wells and incubated for up to 72h. The viability assay was performed using Sulforhodamine B colorimetric assay for viability assay following the protocol described by Vanicha Vichai & Kanyawim Kirtikara.

[2] = tested on: H460 cells; assay: Sensitivity to chemotherapeutic drugs; type: cell-based, human; settings: H460 cells compared with A549 cells; data not shown
[3] = tested on: HADHA; assay: HADHA expression in cells; type: cell-based, human; settings: A549 cells; LiCl 20 mM
Procedure: Cells pellet were lysed in a buffer containing RIPA IX (Sigma-Aldrich) and protease inhibitors cocktail (chymostatin, leupeptin, antipain, pepstatin A - Sigma-Aldrich). Protein lysates were placed on ice for 15 min, vortexed and cleared by centrifugation at 12,000 × g for 15 min at 4 °C. The supernatants were retrieved and frozen at -80 °C until use. Protein concentration was performed using the Pierce™ BCA Protein Assay Kit.
Samples (20ug) were dissolved in Laemmli buffer (Bio-Rad) containing 2% mercaptoethanol by incubation for 15 min at 65°C and separated on a 4-15% SDS-polyacrylamide gradient TGX STAIN FREE mini-gel (Biorad). The gels are activated by UV with chemidoc (Biorad). Proteins were transferred electrophoretically to 0.45 µm of nitrocellulose membranes for 7 min at 2.5 Amp in Transfert buffer with Trans-Blot Turbo (biorad). Membranes were blocked 1h in odyssey buffer (eurobio) and incubated overnight in a mixture of antibodies diluted in odyssey buffer. After three washes with PBS-0.05% Tween 20, the membranes were incubated for 1 h with second antibody (LYCOR) diluted in odyssey buffer. This secondary antibody was detected by fluorescence with odyssey. Proteins were detected using specific antibodies (abcam) and total protein was used as the loading control. Primary antibodies (abcam®) against HADHA, VLCAD, mt-ETFA, mt-ETFB, NDUFS2 and NDUFAB1.

[4] = tested on: A549 cells; assay: Incorporation of [13C]-palmitate in Krebs cycle by mass spectrometry; type: cell-based, human; settings: after 2 hours
Procedure: The incorporation of palmitate in Krebs cycle was followed at the level of citrate using mass spectrometry. A549 cells grown in low glucose DMEM were washed twice with PBS and resuspended in PBS containing 2 mm [U-13C]palmitate with (10 mm) glucose.
The cells were incubated for 2 h at 27 °C before fast filtration preparation of the samples for mass spectrometry analysis. Metabolites were analyzed by ionic-exchange chromatography coupled with tandem mass spectrometry (IC-MS/MS) using the method described by Bolten et al. Retention time on the column and multiple reaction monitoring (MRM) transition of each analyzed metabolite are known by the one skilled in the art.
The ^13C mass isotopomer distribution of intracellular metabolites was determined from relevant isotopic clusters in the IC-MS/MS analysis, according to Kiefer et al. ^13C mass isotopomer distribution measurements were performed using a triple quadrupole mass spectrometer (4000Qtrap, Applied Biosystems). To obtain ^13C-labeling patterns (^13C isotopologues), isotopic clusters were corrected for the natural abundance of isotopes other than 13C, using the in-house software IsoCor (available at MetaSys).

[5] = tested on: human lung OX- H460 adenocarcinoma; assay: Orthotopic mouse model of human lung OX- adenocarcinoma; type: in vivo, mice; settings: 20 mg/kg daily
Source text: (§2) All procedures using animals were approved by the Animal Care and Use Ethics Committee of the University of Bordeaux. The NOD/LtSz-scid/IL-2Rychain^null (NSG) mice were produced and housed in the University Bordeaux Segalen animal facility, according to the rules and regulations governed and enforced by the Institutional Animal Care and Use Committee. The animal facility institutional agreement number is A33063916. Animals were included in protocols between 6 and 8 weeks old. Mice were monitored weekly for body weights and were also examined for aspect and behavior during the time-course of the experiments. No changes were noticed except otherwise indicated.
(§3) The orthotopic mouse models of OX+ or OX- human LUAD were obtained by using luciferase expressing clones of A549 or H460 lung adenocarcinoma cell lines, respectively. Groups of 5 mice were anesthetized with isoflurane and 1 × 10^6 cells in a volume of 100µl were injected in the lung of 8-weeks NGS mice and imaged 20 min after injection. Bioluminescence imaging (BLI) was performed on a Bioimager following intraperitonal injection of 150 mg/kg of D-Luciferin (Interchim, Montluçon, France). After 10 min, mice were anesthetized by isoflurane and placed into a photon bioimager (BIOSPACE LAB, Paris, France) for about 20 min to acquire luminescence images. Signals were quantified with the M3Vision software (BIOSPACE LAB). […]

[6] = tested on: A549 cells; assay: Mass spectrometry lipidomic analysis of cells; type: cell-based, human; settings: inside A549 cells
Procedure: (§4) Extracted samples were dissolved in 100 µL CHC13; 15 µL was injected for analysis. LC separation was achieved using a Bio-Bond 5U C4 column (Dikma). The LC solvents were as follows: buffer A, 95:5 H2O:methanol + 0.03% NH4OH; buffer B, 60:35:5 isopropanol:methanol:H2O + 0.03% NH4OH. A typical LC run consisted of the following for 70 min after injection: 0.1 mL/min 100% buffer A for 5 min, 0.4 mL/min linear gradient from 20% buffer B to 100% buffer B over 50 min, 0.5 mL/min 100% buffer B for 8 min and equilibration with 0.5 mL/min 100% buffer A for 7 min. FFA analysis was performed using a Thermo Scientific Q Exactive Plus fitted with a heated electrospray ionization source. The MS source parameters were 4 kV spray voltage, with a probe temperature of 437.5 °C and capillary temperature of 268.75 °C. Full-scan MS data was collected with a resolution of 70 k, AGC target 1 × 106, maximum (max) injection time of 100 ms and a scan range of 150-2,000 m/z. […] Extracted ion chromatograms for each FFA were generated using a m/z ± 0.01 mass window around the calculated exact mass (i.e., palmitic acid, calculated exact mass for M-H is 255.2330, and the extracted ion chromatogram was 255.22-255.24). Quantification of the FFAs was performed by measuring the area under the peak and dividing this number by the area under the peak for [^13C16]palmitate. […]

[7] = tested on: H460 cells; assay: Mass spectrometry lipidomic analysis of cells; type: cell-based, human; settings: 48 hours
Procedure: as §4

[8] = tested on: A549 (OX+) cells; assay: Oxygen consumption by high-resolution respirometry; type: cell-based, human; settings: 500µM for 48H
Procedure: O2 consumption rates were measured polarographically using high-resolution respirometry (Oroboros Oxygraph-O2K). After the treatment period, medium was removed and cells were either suspended in DMEM in the presence of glucose or not for measurements of O2 consumption of intact cells, or in the respiration medium pH 7.2 (mannitol 0.25 M, MgCl2 10 mM, KH2PO4 10 mM, HEPES 10 mM, EDTA 0.08 mM, EGTA 1 mM and fatty acid free BSA 0.1%) for evaluation of respiratory complexes of permeabilized cells. Routine consumption, oligomycin-independent respiration (proton leak), FCCP-stimulated respiration (ETS capacity - maximum respiration) and ROX (oxygen consumption in presence of rotenone and antimicyn A) were measured in intact […] cells. All the values were corrected by ROX. The respiratory activity of ETF of digitonin 0.0015%-permeabilized lung cancer cells were performed following the addition of palmitoyl-carnitine 25 µM (ETF-linked substrate), rotenone 0.5 µM, ADP 100 µM. DatLab software (Oroboros Instruments, Innsbruck, Austria) was used for data acquisition and analysis.

[9] = tested on: Complex I subunits; assay: Quantitative proteome analysis of complex I subunits; type: cell-based, human; settings: A549 cells
[10] = Mass spectrometry lipidomic analysis of blood; type: in vivo, mice; settings: 20mg/kg/day, day 7
Procedure: as §4

[11] = tested on: H460 (OX-) cells; assay: Sulphorodamine B viability assay; type: cell-based, human; settings: H460 (OX-) cells in vitro
Procedure: A549_LUC and H460_LUC, human lung cancer cells, were stably transfected with luciferase (pRRLsin-MND-Luc-WPRE). The cells were maintained in DMEM medium (Gibco) 11885-084 and 11965-092 respectively, supplemented with 10% fetal bovine serum (FBS), pH 7.4 at 37°C in a humidified incubation chamber with 5% CO2. Cells were sub-cultured every 2 days and used on experiments when they reached 85% confluency. Also, they were tested as luciferase positive using direct application of 2 mL of a 150 mg/ml solution of luciferine (Firefly Luciferin, Caliper Lifescience Corp, USA), followed by immediate bioluminescent imaging using the photonIMAGER™ optima system.
as §1

[12] = tested on: respiratory chain complex I; assay: Complex I enzymatic activity assay (spectrophotometric); type: biochemical, human; settings: A549 cells: 500 µM Trimetazidine 48H; cell homogenate: 100 µM palmitoyl-Coa, 10 min incubation
Procedure: Enzymatic activities were measured spectrophotometrically, in homogenate of cells using the following reaction media: Complex I - 50mM potassium phosphate buffer, 100µM Decylubiquinone. The reaction was started by the addition of 100µM NADH and carried out at 37°C for 15 min in 340nm. After the stabilization of the signal was added 12,5µM Rotenone. Complex II - 25mM potassium phosphate buffer, 1mM KCN, 100µM ATP, 50µM DCPIP, 20mM succinate. The reaction was started by the addition of 100µM decylubiquinone and carried out at 37°C for 15 min in 660nm. Complex III - 100mM potassium phosphate buffer, 50µM cytochrome c, 250µM EDTA. The reaction was started by the addition of 100µM decylubiquinol and carried out at 37°C for 15 min in 550nm. After the stabilization of the signal was added 12,5µg/ml antimycin A. Complex IV - 100uM reduced cytochrome C in 50mM potassium phosphate buffer. The reaction was started by the addition of homogenate of cells and carried out at 37°C for 15 min in 550nm.

[13] = tested on: A549 cells expressing luciferase; assay: Orthotopic mouse model of human lung OX+ adenocarcinoma, bioluminescence imaging; type: in vivo, mice; settings: luminescence imaging at day 3 and day 18; Trimetazidine 20mg/kg/day
Source text: as §2, §3

[14] = tested on: A549 cells; assay: ATP measurement (CellTiter-Glo); type: cell-based, human; settings: 500µM for 48H
Procedure: The ATP content was performed using the The CellTiter-Glo® Luminescent Cell Viability Assay (Promega) folowing manufacturer's instructions. Luminescence was read on a spectramax M4 Multi-Mode Microplate Reader (Molecular Devices) and values were calculated based on an ATP standard curve. The assay was normalized to cell number.

[15] = tested on: A549 (OX+) cells; assay: NAD/NADH determination; type: cell-based, human; settings: 500µM for 48H
Procedure: The NAD/NADH was measure using the NAD/NADH Colorimetric assay Kit (abcam), according to the manufacturer's instructions. At 25°C absorbance was measured at 450 nm and the value used to calculate the ratio. The assay was normalized to cell number.

COc1ccccc1OCC(O)CN1CCN(CC(=O)Nc2c(C)cccc2C)CC1 (racemic) [Ranolazine, (±)-N-(2,6-dimethylphenyl)-4-[2-hydroxy-3-(2-methoxyphenoxy)-propyl]-1-piperazineacetamide]
cell viability [1]: dose-dependent loss

O=c1[nH]cc(F)c(=O)[nH]1 [5-fluorouracile]
sensitivity to the chemotherapeutic drugs [2]: higher sensitivity

COC(=O)c1cccc(NS(=O)(=O)c2ccc(C)cc2)c1 [MSAB, methyl 3-{[(4-methylphenyl)sulfonyl]amino}benzoate]
expression of HADHA [3]: opposite effect

COc1ccc(CN2CCNCC2)c(OC)c1OC [Trimetazidine, 1-(2,3,4-trimethoxybenzyl)piperazine]
incorporation of [^13C]-palmitate in the Krebs cycle ([^13C]citrate isotopomers) [4]: significant reduction
effect on OX- tumors [5]: no effect
accumulation of unprocessed fatty-acids [6]: accumulation
accumulation of unprocessed fatty-acids [7]: not
mitochondrial respiration [8]: inhibited
content of 15 Complex I subunits [9]: significant reduction
Complex I intermediate-associated protein 30 (CIA30; NDUFAF1) ([9]; after 4 hours of treatment): completely degraded
Fatty-acids accumulation in the blood ([10]; OX+ mice): accumulation
level of hydroxylated fatty acids (C18-OH, C18-1OH, C18-2OH, C16OH, C14OH) ([10]; blood of OX+ mice): increased
cell viability [11]: no effect
respiratory chain complex I activity [12]: inhibition
tumor size [13]: Reduction of tumor size
cellular ATP content [14]: altered
cell viability [1]: Dose-dependent reduction
NADH redox state (NAD+/NADH ratio) [15]: altered

COc1cccc2c1C(=O)c1c(O)c3c(c(O)c1C2=O)C[C@@](O)(C(=O)CO)C[C@@H]3O[C@H]1C[C@H](N)[C@H](O)[C@H](C)O1 [doxorubicin]
sensitivity to the chemotherapeutic drugs [2]: higher sensitivity

COc1cc([C@@H]2c3cc4c(cc3[C@@H](O[C@@H]3O[C@@H]5CO[C@@H](C)O[C@H]5[C@H](O)[C@H]3O)[C@H]3COC(=O)[C@H]23)OCO4)cc(OC)c1O [etoposide]
sensitivity to the chemotherapeutic drugs [2]: higher sensitivity

CCCCCCCCCCCCCCCC(=O)SCCNC(=O)CCNC(=O)[C@H](O)C(C)(C)COP(=O)(O)OP(=O)(O)OC[C@H]1O[C@@H](n2cnc3c(N)ncnc32)[C@H](O)[C@@H]1OP(=O)(O)O [palmitoyl-CoA]
respiratory chain complex I activity [12]: inhibition

lithium-chloride
expression of HADHA [3]: stimulated
